Results reported in patent US7935853B2, “Micronized composition of a 2,4-disubstituted phenol derivative” (priority 2008, dated 2011).

Tested on: arthritis induced by injection of type II collagen in the mouse
Assay: Model of arthritis induced by type II collagen in mice (CIA), hind paw plethysmometry
Type: in vivo
Details: for Total hind paw volume (sum of both hind paws) / Oedema (difference in paw volume from basal values on day 21) in both hind paws: group mean n=10
Description: The aim of the study was to determine the anti-inflammatory activity of the test item in a model of arthritis induced by injection of type II collagen in the mouse (CIA) and to compare the activity of two different formulations: micronized and non-micronized.
Induction of arthritis was carried out by an initial exposure to type II bovine collagen by a subcutaneous injection at the base of the tail (induction phase).
After a recovery time of 21 days, animals received a booster injection and approximately 4-5 weeks after the first injection there was an immune response with arthritis appearing in the extremities in the majority of the cases.
Four experimental groups were used in the study with 10 animals in each group:
Group D: Positive control: FCA+vehicle B.I.D.
Group E: Micronized Test Item (Micro) 10 mg/kg B.I.D.
Group F: Non-Micronized test item 10 mg/kg B.I.D.
Group G: Reference item: Indomethacin 1 mg/kg Q.D.
The dose administered to groups E and F was 10 mg/kg.
The dose administered to group G was 1 mg/kg.
The doses of the test and reference items were expressed as mg/Kg of compound administered to each animal.
The test and reference items were administered in a solution of methylcellulose (0.25%: vehicle).
The positive control group received the vehicle (methylcellulose 0.25%).
The test and reference items, as well as the vehicle were administered orally at a dosing volume of 5 mls/kg.
The route of administration used was oral by use of an intragastric cannula.
On the day of start of the study each mouse was injected subcutaneously at the base of the tail with a first dose of 0.1 ml of an emulsion of bovine type II collagen (1 mg/mL) in Freund's Complete Adjuvant. Afterwards, on day 21 after this first injection, a second booster injection of type II collagen was administered to all animals. In this occasion the collagen suspension was done using Incomplete Freund's Adjuvant.
Coinciding with the second booster injection on day 21 treatment with the test or reference items was started to the corresponding animals.
Treatment with the test or reference items was carried out for 31 consecutive days (days 21-51 of the experimental period). Additionally, a recovery period was included at the end of the treatment period from day 52 to day 65 in order to evaluate the duration of any anti-inflammatory effect observed once dosing has been terminated.
The animals' hind paw volume was measured by plethysmometry one day before the 1st injection of collagen, again one day before the second (booster) collagen injection (basal values) and then daily after administration of test/reference item until the end of the study. During the recovery period at the end of the study, hind paw volume was measured three times per week.
Additionally the data was also represented graphically, depicting changes in total hind paw volume, as well as oedema (differences from basal (day 21) values).

[1] = day 22, oral treatment days 21-51, listed as Group F
[2] = day 23, oral treatment days 21-51, listed as Group F
[3] = day 26, oral treatment days 21-51, listed as Group F
[4] = day 27, oral treatment days 21-51, listed as Group F
[5] = day 29, oral treatment days 21-51, listed as Group F
[6] = day 30, oral treatment days 21-51, listed as Group F
[7] = day 33, oral treatment days 21-51, listed as Group F
[8] = day 34, oral treatment days 21-51, listed as Group F
[9] = day 35, oral treatment days 21-51, listed as Group F
[10] = day 36, oral treatment days 21-51, listed as Group F
[11] = day 37, oral treatment days 21-51, listed as Group F
[12] = day 41, oral treatment days 21-51, listed as Group F
[13] = day 42, oral treatment days 21-51, listed as Group F
[14] = day 43, oral treatment days 21-51, listed as Group F
[15] = day 44, oral treatment days 21-51, listed as Group F
[16] = day 47, oral treatment days 21-51, listed as Group F
[17] = day 48, oral treatment days 21-51, listed as Group F
[18] = day 49, oral treatment days 21-51, listed as Group F
[19] = day 50, oral treatment days 21-51, listed as Group F
[20] = day 51, oral treatment days 21-51, listed as Group F
[21] = day 54, recovery period after treatment days 21-51, listed as Group F
[22] = day 56, recovery period after treatment days 21-51, listed as Group F
[23] = day 58, recovery period after treatment days 21-51, listed as Group F
[24] = day 61, recovery period after treatment days 21-51, listed as Group F
[25] = day 63, recovery period after treatment days 21-51, listed as Group F
[26] = day 65, recovery period after treatment days 21-51, listed as Group F

Oc1c(I)cc(I)cc1I [Non-Micronized, 2,4,6-triiodophenol]
Total hind paw volume (sum of both hind paws) (day 0, before collagen and treatment, listed as Group F): 0.189 | Total hind paw volume (sum of both hind paws) (day 20, basal, before treatment, listed as Group F): 0.243 | Oedema (difference in paw volume from basal values on day 21) in both hind paws [1]: −0.003 | Total hind paw volume (sum of both hind paws) [1]: 0.240 | Oedema (difference in paw volume from basal values on day 21) in both hind paws [2]: 0.007 | Total hind paw volume (sum of both hind paws) [2]: 0.250 | Oedema (difference in paw volume from basal values on day 21) in both hind paws [3]: 0.010 | Total hind paw volume (sum of both hind paws) [3]: 0.253 | Oedema (difference in paw volume from basal values on day 21) in both hind paws [4]: −0.001 | Total hind paw volume (sum of both hind paws) [4]: 0.242 | Oedema (difference in paw volume from basal values on day 21) in both hind paws [5]: 0.006 | Total hind paw volume (sum of both hind paws) [5]: 0.248 | Oedema (difference in paw volume from basal values on day 21) in both hind paws [6]: 0.016 | Total hind paw volume (sum of both hind paws) [6]: 0.259 | Oedema (difference in paw volume from basal values on day 21) in both hind paws [7]: 0.007 | Total hind paw volume (sum of both hind paws) [7]: 0.250 | Oedema (difference in paw volume from basal values on day 21) in both hind paws [8]: 0.011 | Total hind paw volume (sum of both hind paws) [8]: 0.254 | Oedema (difference in paw volume from basal values on day 21) in both hind paws [9]: 0.013 | Total hind paw volume (sum of both hind paws) [9]: 0.255 | Oedema (difference in paw volume from basal values on day 21) in both hind paws [10]: 0.011 | Total hind paw volume (sum of both hind paws) [10]: 0.254 | Oedema (difference in paw volume from basal values on day 21) in both hind paws [11]: 0.000 | Total hind paw volume (sum of both hind paws) [11]: 0.243 | Total hind paw volume (sum of both hind paws) (day 40, oral treatment days 21-51): 0.273 | Oedema (difference in paw volume from basal values on day 21) in both hind paws (day 40, oral treatment days 21-51, listed as Group F): 0.030 | Oedema (difference in paw volume from basal values on day 21) in both hind paws [12]: 0.028 | Total hind paw volume (sum of both hind paws) [12]: 0.271 | Oedema (difference in paw volume from basal values on day 21) in both hind paws [13]: 0.021 | Total hind paw volume (sum of both hind paws) [13]: 0.264 | Oedema (difference in paw volume from basal values on day 21) in both hind paws [14]: 0.013 | Total hind paw volume (sum of both hind paws) [14]: 0.255 | Oedema (difference in paw volume from basal values on day 21) in both hind paws [15]: 0.006 | Total hind paw volume (sum of both hind paws) [15]: 0.248 | Oedema (difference in paw volume from basal values on day 21) in both hind paws [16]: 0.031 | Total hind paw volume (sum of both hind paws) [16]: 0.273 | Oedema (difference in paw volume from basal values on day 21) in both hind paws [17]: 0.034 | Total hind paw volume (sum of both hind paws) [17]: 0.277 | Oedema (difference in paw volume from basal values on day 21) in both hind paws [18]: 0.039 | Total hind paw volume (sum of both hind paws) [18]: 0.281 | Oedema (difference in paw volume from basal values on day 21) in both hind paws [19]: 0.046 | Total hind paw volume (sum of both hind paws) [19]: 0.289 | Oedema (difference in paw volume from basal values on day 21) in both hind paws [20]: 0.046 | Total hind paw volume (sum of both hind paws) [20]: 0.288 | Oedema (difference in paw volume from basal values on day 21) in both hind paws [21]: 0.065 | Total hind paw volume (sum of both hind paws) [21]: 0.307 | Oedema (difference in paw volume from basal values on day 21) in both hind paws [22]: 0.062 | Total hind paw volume (sum of both hind paws) [22]: 0.304 | Oedema (difference in paw volume from basal values on day 21) in both hind paws [23]: 0.070 | Total hind paw volume (sum of both hind paws) [23]: 0.312 | Oedema (difference in paw volume from basal values on day 21) in both hind paws [24]: 0.063 | Total hind paw volume (sum of both hind paws) [24]: 0.31 | Oedema (difference in paw volume from basal values on day 21) in both hind paws [25]: 0.073 | Total hind paw volume (sum of both hind paws) [25]: 0.32 | Oedema (difference in paw volume from basal values on day 21) in both hind paws [26]: 0.072 | Total hind paw volume (sum of both hind paws) [26]: 0.31 | effect on hind paw oedema (in words) (test item 10 mg/kg BID, Indomethacin 1 mg/kg Q.D, oral): did not result in any significant inhibition
